# Measurements as given in ChEMBL document CHEMBL3826963, “Pharmacological protection of mitochondrial function mitigates acute limb ischemia/reperfusion injury” (Bioorg Med Chem Lett, 2016).
# Activity calls are given as the source filed them. The rule behind the calls is not given here. Where a SMILES comes first, the peptide text is derived from it.
# Columns and labels:
# Mus musculus = experiment: Anti-inflammatory activity in ICR mouse assessed as inhibition of xylene-induced ear edema at 1 umol/kg, po pretreated for 30 mins followed by xylene administration measured after 2 hrs relative to control; type: functional
# Rattus norvegicus [1] = experiment: Antithrombotic activity in Wistar rat model of thread-induced arterial thrombosis assessed as thrombus weight at 5 umol/kg measured after 2 to 3 hrs (reference value: 42.1 +/- 3.2 mg)
# Rattus norvegicus [2] = experiment: (§1) Anti-inflammatory activity in Wistar rat model of tourniquet-induced limb ischemia/reperfusion injury assessed as serum TNF-alpha level at 20 mg/kg, ip dosed 15 mins before and after 3 hrs of ischemia followed by 20 mg/kg, ip compound treatment for 1 hr before and after 4 hrs of reperfusion by ELISA (reference value: 185.1 +/- 23.5 pg/ml); type: functional
# PC-12 [3] = experiment: Antioxidant activity in rat PC12 cells assessed as scavenging of H2O2/Fe2+ ion-induced hydroxyl radical by measuring increase in cell survival at 12.5 to 200 uM preincubated for 1 hr followed by H2O2/Fe2+ ion addition measured after 1 hr by MTT assay; type: functional, cell-based
# Rattus norvegicus [4] = experiment: as §1, with “IL-6” for “TNF-alpha”, “580.3” for “185.1”, “95.2” for “23.5”; type: functional
# Rattus norvegicus [5] = experiment: (§2) Protection against Wistar rat model of tourniquet-induced limb ischemia/reperfusion injury-induced oxidative stress assessed as skeletal muscle CAT activity per mg protein at 20 mg/kg, ip dosed 15 mins before and after 3 hrs of ischemia followed by 20 mg/kg, ip compound treatment for 1 hr before and after 4 hrs of reperfusion (reference value: 25.64 +/- 5.29 U); type: functional
# Rattus norvegicus [6] = experiment: as §2, with “SOD” for “CAT”, “0.41” for “25.64”, “0.09” for “5.29”; type: functional
# Rattus norvegicus [7] = experiment: as §2, with “MDA level” for “CAT activity per mg protein”, “45.78” for “25.64”, “4.33 nmol/g)” for “5.29 U)”; type: functional
# PC-12 [8] = experiment: Antioxidant activity in rat PC12 cells assessed as scavenging of SNAP-induced NO radical by measuring increase in cell survival at 12.5 to 200 uM preincubated for 1 hr followed by SNAP addition measured after 2 hrs by MTT assay; type: functional, cell-based
# PC-12 [9] = experiment: Antioxidant activity in rat PC12 cells assessed as scavenging of hypoxanthine/xanthine oxidase-induced O2 radical by measuring increase in cell survival at 12.5 to 200 uM preincubated for 1 hr followed by hypoxanthine/xanthine oxidase addition by MTT assay; type: functional, cell-based
# Rattus norvegicus [10] = experiment: as §2, with “GSH level” for “CAT activity per mg protein”, “0.82” for “25.64”, “0.19 umol/g)” for “5.29 U)”; type: functional
Structure (SMILES),inhibition in vivo at 1 µmol/kg (Mus musculus) [%],Activity (Rattus norvegicus [1]) [mg],Activity (Rattus norvegicus [2]) [pg/mL],Activity (PC-12 [3]),Activity (Rattus norvegicus [4]) [pg/mL],Activity (Rattus norvegicus [5]) [U/mg],Activity (Rattus norvegicus [6]) [U/mg],Activity (Rattus norvegicus [7]) [nmol/g],Activity (PC-12 [8]),Activity (PC-12 [9]),Activity (Rattus norvegicus [10]) [µmol/g]
COc1ccc(/C=C/C(=O)CC(=O)/C=C/c2ccc(OCC(=O)N[C@@H](CCCCN)C(=O)O)c(OC)c2)cc1OC,39.3,38.3,–,–,–,–,–,–,–,–,–
COc1cc(/C=C/C(=O)CC(=O)/C=C/c2ccc(OCC(=O)N[C@@H](CCCCN)C(=O)O)c(OC)c2)ccc1O,41.1,34.5,–,–,–,–,–,–,–,–,–
COC(=O)COc1ccc(/C=C/C(=O)CC(=O)/C=C/c2ccc(O)c(OC)c2)cc1OC,23.3,39.7,155.4,Active,450.8,44.6,0.64,32.47,inactive,inactive,1.41
C[C@H](NC(=O)[C@@H]1CCCN1)C(=O)N[C@@H](CCCCN)C(=O)O (H-Pro-Ala-Lys-OH),–,32.8,–,–,–,–,–,–,–,–,–
CC(=O)Oc1ccccc1C(=O)O [ASPIRIN],50.3,28.5,–,–,–,–,–,–,–,–,–
COC(=O)COc1ccc(/C=C/C(=O)CC(=O)/C=C/c2ccc(OC)c(OC)c2)cc1OC,25.1,40.1,160.7,Active,472.5,42.4,0.58,30.12,inactive,inactive,1.55
